Experimental data as given in patent US20250136544A1, “8-((4-HYDROXY-3-METHYLPHENYL)DIAZENYL)NAPHTHALENE-1,3-DISULFONIC ACID AS AN ANTIMICROBIAL COMPOUND” (KING FAISAL UNIVERSITY, priority 2023, published 2025).

Assay: DPPH radical scavenging antioxidant test
Assay type: biochemical
Details: 517 nm; for Inhibition (radical scavenging inhibition): 0.2 mL DPPH (0.75 mM), compound 3 μM in ethanol, 30 minutes in the dark
Protocol: The antioxidant properties of the 8-((4-hydroxyphenyl)diazenyl)naphthalene-1,3-disulfonic acid compound were studied by adding 0.2 mL DPPH (0.75 mM)) to 8-((4-hydroxyphenyl)diazenyl)naphthalene-1,3-disulfonic acid (III) (3 μM) in ethanol. After 30 minutes of incubation in the dark, the absorbance was read against a blank at 517 nm. Ascorbic acid (vitamin C) was used as standard antioxidants (positive control). A blank sample was prepared by 0.2 ml of DPPH in 3 mL ethanol. A negative control sample was run using ethanol instead of the sample. The radical scavenging inhibition was calculated using the following equation: […]
The antioxidant activity for the synthesized compound is listed in Table 1, using Vitamin C as a reference.

SMILES: O=S(=O)(O)c1cc(S(=O)(=O)O)c2c(/N=N/c3ccc(O)cc3)cccc2c1 [Product III, 8-((4-hydroxyphenyl)diazenyl)naphthalene-1,3-disulfonic acid]
- Inhibition (radical scavenging inhibition): 52%
- antioxidant potential in DPPH test compared to vitamin C (in words) (DPPH in vitro test, vitamin C as positive control): high potential as an antioxidant compared to vitamin C

SMILES: O=C1O[C@H]([C@@H](O)CO)C(O)=C1O [vit c, Ascorbic acid, reference compound]
- Inhibition (radical scavenging inhibition): 74%
